{"source": "patent US11834516B2", "about": "“Tumor-specific polypeptide and use thereof” (GENOIMMUNE THERAPEUTICS CO., LTD., priority 2016, dated 2023)", "key": {"[1]": {"tested_on": "H2087-KLMGIVYKV subcutaneous tumor", "assay": "Lentivirus (nucleic acid) transfected DC vaccine in H2087-[…] subcutaneous tumor model", "type": "in vivo, NOD/SCID mice", "settings": "lentivirus-infected DC, intradermal, 2 weekly injections", "description": "Using automated DNA synthesizer, nucleotide sequences were synthesized by ligating nucleotides one by one based on a known sequence utilizing solid phase phosphite amide method. […] The lentiviral plasmids pHBLV-Puro containing the wild type polypeptide or the mutated polypeptides were separately constructed and named as pHBLV-Puro-[…], pHBLV-Puro-[…], pHBLV-Puro-[…], pHBLV-Puro-[…], pHBLV-Puro-[…], respectively. Thereafter, the five lentiviral plasmids were co-transfected into T293 cells with the pSPAX2 and pMD2G helper plasmids, respectively, and were packaged into lentiviruses containing the wild type polypeptide or the mutated polypeptides.\nThe established human lung (non-small cell) adenocarcinoma cell line H2087-[…] cells were cultured in DMEM medium supplemented with 10% fetal calf serum, 100 U/mL penicillin and streptomycin in an incubator at 37° C., 5% CO2. […] After appropriate dilution, 40 μl of the cell suspension was stained with 10 μl of 0.4% Trypan Blue and microscopically counted to prepare a tumor cell suspension at a concentration of 1×10^8 cells/ml. […] Using the vernier caliper, the tumor long diameter a and the short diameter b were measured every 2-3 days, and the tumor size was calculated as follows: tumor size=a*b*b/2. […]"}, "[2]": {"tested_on": "T2 cells", "assay": "LDH release assay, specific killing activity of CD8+ T cells", "type": "cell-based, human", "parameters": "concentration or dose not given beside the values", "settings": "T cells activated by the labelled polypeptide, 4 hours", "description": "The following experiment was carried out according to the instructions of Pierce™ LDH Cytotoxicity Assay Kit (Thermo, Cat. No. 88953). The co-cultured cells in Example 4 were co-cultured with T2 cells loaded with mutated polypeptides or wild-type polypeptide or T2 cells without any loaded polypeptides. In the experiment, the maximum release well, the volume correction well, the medium control well, the spontaneous release well, the control of different ratios of effective cells to target cells (the ratio of the number of T cells to the T2 cell) and the like were set, and three duplicate wells were set in each group, and after 4 hours, 50 ul of the supernatant of the co-cultured cells was collected and added to 50 ul of LDH substrate mixture to catalyze the reaction of LDH substrate. After 30 minutes, 50 ul of reaction stop solution was added and read the 490 nm wavelength and the reference wavelength of 680 nm, and the killing activity of target cells against T2 cells were calculated based on the control wells.\nThe formula for calculating the killing activity is: Killing efficiency (%)=(test well−spontaneous release of effector cell−spontaneous release of target cell+medium well)/(maximum release of target cell−volume correction well−spontaneous release of target cell+medium well)×100%"}, "[3]": {"tested_on": "CD8+ T cells", "assay": "Cell expansion of CD8+ T cells stimulated by polypeptide-loaded DCs in vitro", "type": "cell-based, human", "settings": "day 10 of co-culture of CD8+ T cells with polypeptide-loaded DCs; 2.5 × 10^6 cells before culture", "description": "Dendritic cells (DCs) derived from monocytes were used as antigen presenting cells (APCs) to induce CTL responses against peptides presented on HLA. 2×10^8 peripheral blood mononuclear cells (PBMC) were isolated from 100 ml of peripheral blood of healthy volunteers with positive HLA-A0201 subtype using Ficoll lymphocyte separation solution (Cat. No. 17-1440-02, GE Healthcare). Mononuclear cells were obtained by adherent culture (3 hours), and CD8+ T cells in PBMC cells were screened with CD8 magnetic beads. GM-CSF (1000 U/ml) and IL-4 (1000 U/ml) were used to induce adherent monocytes into immature DCs, then IFN-γ (100 U/ml), LPS (10 ng/ml), and the polypeptides of the present invention as set forth in SEQ ID NOs: 2-5 were used to induce adherent cells into mature DC cells. The mature DC cells loaded with the polypeptides were irradiated (dose of 25 Gy) and co-cultured with CD8+ T cells of the volunteers (DC density was 5×10^5 cells/ml, CD8+ T cell density was 2×10^6 cells/ml, both of DCs and CD8+ T cells were mixed in equal volume and added to the well plate, i.e., co-cultured) with IL-21 added, then IL-2 and IL-7 were replenished after 3 days, and then IL-2 and IL-7 were replenished once on day 5 and 7, respectively. Co-cultured cells (co-cultured CD8+ T cells were activated to polypeptide-specific CD8+ T cells) were counted on day 10."}, "[4]": {"tested_on": "CD8+ T cells", "assay": "IFN-γ ELISPOTs, activation of CD8+ T cell immune response", "type": "cell-based, human", "settings": "for Number of spots in the mutated polypeptide group / Number of spots in the wild type polypeptide group: CD8+ T cells primed with DCs loaded with the polypeptide, 20 hours; for Number of spots in the mutated polypeptide group: T2 cells loaded with mutated polypeptide; for Number of spots in the wild type polypeptide group: T2 cells loaded with wild type polypeptide KLMGIVNKV; for Conclusion (immunogenicity): IFN-γ ELISPOTs; for Folds (test/wild type): ratio of spot numbers, >2 = immunogenic", "description": "The principle of ELISPOTs detection method is that CD8+ T cells can specifically recognize the complex of HLA-A0201 and a polypeptide, and with different polypeptide sequence, the T cell population recognizing the complex of HLA-A0201 and the polypeptide is also different. As T2 cells express HLA-A0201, CD8+ T cells can specifically recognize T2 cells loaded with mutated polypeptides, but cannot recognize T2 cells loaded with wild-type polypeptide. After specifically recognizing the complex of HLA-A0201 and the polypeptide, the polypeptide-specific CD8+ T cells are able to reactivate and secrete IFN-γ. The IFN-γ secreted by activation of CD8+ T cells is captured by a biotin-labeled secondary antibody. It is then bound to alkaline phosphatase or peroxide horseradish oxidase-labeled streptavidin. Spots are formed by the color development of the substrate. The number of spots represents the number of cells that are activated to secrete IFN-γ.\nThe cells co-cultured in Example 4 and T2 cells loaded with the mutated polypeptides or the wild-type polypeptide were added into human IFN-γ ELISPOTs plates for culture and detection. The spots formed by the ELISPOT test were finally counted. The requirement for the test polypeptide to be immunogenic is as follows: the number of spots (test polypeptide)/the number of spots (wild type polypeptide)>2, that is, the number of spots formed by the test polypeptide is more than twice the number of spots formed by the wild type polypeptide.\nThe cells co-cultured in Example 4 and T2 cells loaded with the mutated polypeptide […] (SEQ ID NO: 2) and its variable formats (SEQ ID NOs: 2-5) and the wild type polypeptide […] (SEQ ID NO: 6) were added into human IFN-γ ELISPOTs plates for culture, and subjected to ELISPOTs test (Mabtech, Cat. No. 3420-4APW-2) 20 hours later."}, "[5]": {"molecular_target": "T1, HLA-A0201 (Homo sapiens, UniProt P04439, D140Y/D185E/D98H/E176V/E277Q/G131W/G231S/I119V/I121R/I166T/I218V/L300P/L318F/N151K/N90K/P208A/P217A/Q86G/Q94H/R138H/R169H/T345S)", "T1 construct": "T2 cell expresses HLA-A0201; host or cells: T2 cells", "assay": "T2 affinity verification of the polypeptides for HLA-A0201 by flow cytometry", "type": "binding", "settings": "T2 affinity test", "description": "2 duplicate wells per group were used. […] The cells were collected by centrifugation at 200 g for 5 minutes. After the collected cells were washed twice with PBS (Cat. No. 10010-031, GIBCO), the cells were directly incubated with anti-HLA-A 0201 FITC monoclonal antibody and incubated at 4 C for 30 minutes. The mean fluorescence intensity (MFI) was then detected and analyzed by flow cytometry (BD FACSJazz™) and its software, as shown in FIG. 1.\nThe fluorescence index (FI) is calculated using the following formula: FI=[Mean Fluorescence Intensity (MFI)sample−MFIbackground]/MFIbackground, wherein the MFIbackground represents the value without the polypeptide."}, "[6]": {"settings": "target T2 loaded with KLMGIVYKV (SEQ ID NO: 2)"}, "[7]": {"settings": "target T2 loaded with wild type KLMGIVNKV (SEQ ID NO: 6)"}}}
{"sequence": "KLMGIVNKV [wild-type peptide fragment, amino acids 130-138 of the unmutated Twist neighbor protein]", "values": [{"measurement": "tumor suppressing effect", "setting": "[1]", "result": "no effect on the tumor"}]}
{"sequence": "KLMGIVYKL", "values": [{"measurement": "Killing efficiency, ratio of effective cells to target cells (1:1)", "setting": "[2]; [6]", "result": 8.76, "unit": "%"}, {"measurement": "Killing efficiency, ratio of effective cells to target cells (10:1)", "setting": "[2]; [6]", "result": 44.52, "unit": "%"}, {"measurement": "Killing efficiency, ratio of effective cells to target cells (1:1)", "setting": "[2]; [7]", "result": 2.17, "unit": "%"}, {"measurement": "Killing efficiency, ratio of effective cells to target cells (10:1)", "setting": "[2]; [7]", "result": 4.63, "unit": "%"}, {"measurement": "Total number of cells in the well after culture", "setting": "[3]", "result": "1.63 × 10^7"}, {"measurement": "Number of spots in the mutated polypeptide group", "setting": "[4]", "result": 335}, {"measurement": "Number of spots in the wild type polypeptide group", "setting": "[4]", "result": 40}, {"measurement": "Conclusion (immunogenicity)", "setting": "[4]", "result": "immunogenic"}, {"measurement": "Folds (test/wild type)", "setting": "[4]", "result": 8.34}, {"measurement": "affinity for HLA-A0201", "setting": "[5]", "result": "enhanced affinity for HLA-A0201"}]}
{"sequence": "KLMGIVYKV [9-amino-acid mutated TWIST Neighbor protein peptide (N136Y)]", "values": [{"measurement": "Killing efficiency, ratio of effective cells to target cells (1:1)", "setting": "[2]; [6]", "result": 7.69, "unit": "%"}, {"measurement": "Killing efficiency, ratio of effective cells to target cells (10:1)", "setting": "[2]; [6]", "result": 38.29, "unit": "%"}, {"measurement": "Killing efficiency, ratio of effective cells to target cells (1:1)", "setting": "[2]; [7]", "result": 2.33, "unit": "%"}, {"measurement": "Killing efficiency, ratio of effective cells to target cells (10:1)", "setting": "[2]; [7]", "result": 5.03, "unit": "%"}, {"measurement": "Total number of cells in the well after culture", "setting": "[3]", "result": "1.32 × 10^7"}, {"measurement": "Number of spots in the mutated polypeptide group", "setting": "[4]", "result": 316}, {"measurement": "Number of spots in the wild type polypeptide group", "setting": "[4]", "result": 31}, {"measurement": "Conclusion (immunogenicity)", "setting": "[4]", "result": "immunogenic"}, {"measurement": "Folds (test/wild type)", "setting": "[4]", "result": 10.01}, {"measurement": "affinity for HLA-A0201", "setting": "[5]", "result": "does have a high affinity for HLA-A0201"}]}
{"sequence": "KMMGIVYKL", "values": [{"measurement": "Killing efficiency, ratio of effective cells to target cells (1:1)", "setting": "[2]; [6]", "result": 8.29, "unit": "%"}, {"measurement": "Killing efficiency, ratio of effective cells to target cells (10:1)", "setting": "[2]; [6]", "result": 42.26, "unit": "%"}, {"measurement": "Killing efficiency, ratio of effective cells to target cells (1:1)", "setting": "[2]; [7]", "result": 3.25, "unit": "%"}, {"measurement": "Killing efficiency, ratio of effective cells to target cells (10:1)", "setting": "[2]; [7]", "result": 6.23, "unit": "%"}, {"measurement": "Total number of cells in the well after culture", "setting": "[3]", "result": "1.46 × 10^7"}, {"measurement": "Number of spots in the mutated polypeptide group", "setting": "[4]", "result": 328}, {"measurement": "Number of spots in the wild type polypeptide group", "setting": "[4]", "result": 29}, {"measurement": "Conclusion (immunogenicity)", "setting": "[4]", "result": "immunogenic"}, {"measurement": "Folds (test/wild type)", "setting": "[4]", "result": 11.31}, {"measurement": "affinity for HLA-A0201", "setting": "[5]", "result": "enhanced affinity for HLA-A0201"}]}
{"sequence": "KMMGIVYKV", "values": [{"measurement": "Total number of cells in the well after culture", "setting": "[3]", "result": "1.37 × 10^7"}, {"measurement": "Number of spots in the mutated polypeptide group", "setting": "[4]", "result": 323}, {"measurement": "Number of spots in the wild type polypeptide group", "setting": "[4]", "result": 37}, {"measurement": "Conclusion (immunogenicity)", "setting": "[4]", "result": "immunogenic"}, {"measurement": "Folds (test/wild type)", "setting": "[4]", "result": 8.73}, {"measurement": "affinity for HLA-A0201", "setting": "[5]", "result": "enhanced affinity for HLA-A0201"}]}
